The source made the active and inactive calls. No cut-off for these calls is given here.
Assays:
[1] = Cytotoxicity against human HepAD38 cells measured after 72 hrs by CCK-8 assay; format: toxicity, cell-based
Hepatitis B virus [2] = assay: Antiviral activity against HBV gene expressed in human HePAD38 cells assessed as inhibition of HBV DNA replication by quantitative PCR analysis; format: functional, organism-based
[3] = Selectivity index, ratio of CC50 for human HepAD38 cells to IC50 for antiviral activity against HBV gene expressed in human HepAD38 cells assessed as inhibition of HBV DNA replication; format: toxicity, cell-based; details: read-out: Selectivity Index
[4] = Metabolic stability in human liver microsomes assessed as half life by LC-MS/MS analysis; format: ADME, Microsome
[5] = Metabolic stability in human liver microsomes assessed as intrinsic clearance measured per mg of microsomal protein upto 60 mins by LC-MS/MS analysis; format: ADME, Microsome; details: read-out: CLH
[6] = Metabolic stability in human liver microsomes assessed as intrinsic clearance (liver) upto 60 mins by LC-MS/MS analysis; format: ADME, Microsome; details: read-out: CLH
[7] = Stability in human plasma assessed as compound remaining measured after 30 mins by LC-MS/MS analysis; format: ADME, cell-free; details: read-out: Stability
[8] = Stability in human plasma assessed as compound remaining measured after 60 mins by LC-MS/MS analysis; format: ADME, cell-free; details: read-out: Stability
[9] = Stability in human plasma assessed as half life by LC-MS/MS analysis; format: ADME, cell-free
[10] = Stability in human plasma assessed as compound remaining measured after 10 mins by LC-MS/MS analysis; format: ADME, cell-free; details: read-out: Stability
[11] = AUC (0 to infinity) in Sprague-Dawley rat at 20 mg/kg, po measured upto 24 hrs by LC-MS/MS analysis; format: ADME, organism-based; details: in vivo
Hepatitis B virus [12] = assay: Antiviral activity against HBV infected in human HLCZ01 cells assessed as inhibition of HBV replication by measuring HBsAg treated for 6 days by ELISA; format: functional, organism-based; details: time 6.0 day
Hepatitis B virus [13] = assay: In vivo antiviral activity against HBV infected male C57BL/6J mouse by hydrodynamic injection (HDI) of pAAV-HBV1.2 assessed as decrease in HBV DNA in serum at 5 mg/kg/day, po measured after 20 days by qPCR analysis; format: functional, organism-based; details: time 20.0 day
[14] = MRT (0 to infinity) in Sprague-Dawley rat at 2 mg/kg, iv measured upto 24 hrs by LC-MS/MS analysis; format: ADME, organism-based; details: in vivo
[15] = AUC (0 to t) in Sprague-Dawley rat at 2 mg/kg, iv measured upto 24 hrs by LC-MS/MS analysis; format: ADME, organism-based; details: in vivo
[16] = Cmax in Sprague-Dawley rat at 20 mg/kg, po measured upto 24 hrs by LC-MS/MS analysis; format: ADME, organism-based; details: in vivo
[17] = Volume of distribution at steady state in Sprague-Dawley rat at 2 mg/kg, iv measured upto 24 hrs by LC-MS/MS analysis; format: ADME, organism-based; details: in vivo, read-out: Vdss
[18] = Tmax in Sprague-Dawley rat at 20 mg/kg, po measured upto 24 hrs by LC-MS/MS analysis; format: ADME, organism-based; details: in vivo
[19] = Cytotoxicity against human HLCZ01 cells assessed as cell viability measured after 72 hrs by CCK-8 assay; format: toxicity, cell-based
[20] = Half life in Sprague-Dawley rat at 2 mg/kg, iv measured upto 24 hrs by LC-MS/MS analysis; format: ADME, organism-based; details: in vivo
Hepatitis B virus [21] = assay: Antiviral activity against HBV infected in human HLCZ01 cells assessed as inhibition of HBV replication by measuring HBV DNA treated for 6 days by qPCR analysis; format: functional, organism-based; details: HLCZ01, 144 h
[22] = Clearance in Sprague-Dawley rat at 2 mg/kg, iv measured upto 24 hrs by LC-MS/MS analysis; format: ADME, organism-based; details: in vivo
[23] = Selectivity index, ratio of CC50 for human HLCZ01 cells to IC50 for antiviral activity against HBV infected in human HLCZ01 cells assessed as inhibition of HBV replication by measuring HBV DNA treated for 6 days by qPCR analysis; format: toxicity, cell-based; details: time 6 day, read-out: Selectivity Index
[24] = Lipophilic-hydrophilic partition coefficient logP of compound; format: physicochemical; details: octanol/water
[25] = MRT (0 to infinity) in Sprague-Dawley rat at 20 mg/kg, po measured upto 24 hrs by LC-MS/MS analysis; format: ADME, organism-based; details: in vivo
[26] = Stability in human plasma assessed as compound remaining measured after 120 mins by LC-MS/MS analysis; format: ADME, cell-free; details: read-out: Stability
[27] = AUC (0 to infinitive) in Sprague-Dawley rat at 2 mg/kg, iv measured upto 24 hrs by LC-MS/MS analysis; format: ADME, organism-based; details: in vivo
[28] = AUC (0 to t) in Sprague-Dawley rat at 20 mg/kg, po measured upto 24 hrs by LC-MS/MS analysis; format: ADME, organism-based; details: in vivo
[29] = Metabolic stability in human liver microsomes assessed as compound remaining after 60 mins in absence of NADPH (NCF) by LC-MS/MS analysis; format: ADME, Microsome; details: read-out: Stability
[30] = Half life in Sprague-Dawley rat at 20 mg/kg, po measured upto 24 hrs by LC-MS/MS analysis; format: ADME, organism-based; details: in vivo
[31] = Oral bioavailability in Sprague-Dawley rat at 2 mg/kg, iv measured upto 24 hrs by LC-MS/MS analysis; format: ADME, organism-based; details: in vivo
[32] = Stability in human plasma assessed as compound remaining measured immediately by LC-MS/MS analysis; format: ADME, cell-free; details: read-out: Stability
[33] = MRT (0 to t) in Sprague-Dawley rat at 2 mg/kg, iv measured upto 24 hrs by LC-MS/MS analysis; format: ADME, organism-based; details: in vivo
[34] = MRT (0 to t) in Sprague-Dawley rat at 20 mg/kg, po measured upto 24 hrs by LC-MS/MS analysis; format: ADME, organism-based; details: in vivo
[35] = Metabolic stability in human liver microsomes assessed as compound remaining after 60 mins in presence of NADPH by LC-MS/MS analysis; format: ADME, Microsome; details: read-out: Stability

## O=C(Nc1cc(F)c(F)c(F)c1)c1cc(S(=O)(=O)NC2CCC(O)CC2)c(F)cc1-c1ccccc1 (stereo unspecified)
[1]
  CC50 at 72 h: 49.7 µM
Hepatitis B virus [2]
  EC50: > 4 µM
[3]
  selectivity ratio: < 12.4

## O=C(Nc1cc(F)c(F)c(F)c1)c1cc(NC(=S)NC2CC2)c(F)cc1C1CC1
[1]
  CC50 at 72 h: > 100 µM
Hepatitis B virus [2]
  EC50: 0.2 µM
[3]
  selectivity ratio: > 500

## CCNC(=S)Nc1cc(C(=O)Nc2cc(F)c(F)c(F)c2)c(C2CC2)cc1F
[1]
  CC50 at 72 h: 21.2 µM
Hepatitis B virus [2]
  EC50: 0.091 µM
[3]
  selectivity ratio: 233

## O=C(Nc1cc(F)c(F)c(F)c1)c1cc(NC(=O)C2CCCC2)c(F)cc1C1CC1
[1]
  CC50 at 72 h: > 100 µM
Hepatitis B virus [2]
  EC50: 0.48 µM
[3]
  selectivity ratio: > 208

## O=C(/C=C/c1c(S(=O)(=O)N2CCOCC2)ccc(F)c1C(=O)Nc1cc(F)c(F)c(F)c1)OCCO
[1]
  CC50 at 72 h: > 100 µM
Hepatitis B virus [2]
  EC50: > 4 µM

## O=C(Nc1cc(F)c(F)c(F)c1)c1cc(S(=O)(=O)NC2CCC(O)CC2)c(F)cc1-c1ccsc1 (stereo unspecified)
[1]
  CC50 at 72 h: 82.4 µM
Hepatitis B virus [2]
  EC50: > 4 µM
[3]
  selectivity ratio: < 20.6

## CC(C)NC(=O)/C=C/c1c(S(=O)(=O)N2CCOCC2)ccc(F)c1C(=O)Nc1cc(F)c(F)c(F)c1
[1]
  CC50 at 72 h: 24.2 µM
Hepatitis B virus [2]
  EC50: > 4 µM
[3]
  selectivity ratio: < 6.04

## O=C(O)Cc1ccccc1Nc1c(Cl)cccc1Cl [DICLOFENAC]
[4]
  half-life: 0.11 h
[5]
  microsomal CLint: 211 µL/min/mg
[6]
  CLint scaled: 190 mL/min/kg

## C[C@]12CC[C@H]3[C@@H](CCC4=CC(=O)CC[C@@]43C)[C@@H]1CC[C@@H]2O [TESTOSTERONE]
[5]
  microsomal CLint: 74.5 µL/min/mg
[6]
  CLint scaled: 67 mL/min/kg

## CC(C)[N+](C)(CCOC(=O)C1c2ccccc2Oc2ccccc21)C(C)C.[Br-] [PROPANTHELINE BROMIDE]
[7]
  remaining at 0.5 h: 18.9%
[8]
  remaining at 1 h: 1.5%
[9]
  half-life: 0.162 h
[10]
  remaining at 10 min: 70.1%

## COC(=O)/C=C/c1c(S(=O)(=O)N2CCOCC2)ccc(F)c1C(=O)Nc1cc(F)c(F)c(F)c1
[1]
  CC50 at 72 h: > 100 µM
Hepatitis B virus [2]
  EC50: > 4 µM

## O=C(Nc1cc(F)c(F)c(F)c1)c1ccc(F)c(S(=O)(=O)N2CCC(O)CC2)c1
[3]
  selectivity ratio: 47.6

## N#Cc1ccc(C(=O)Nc2cc(C(=O)Nc3cc(F)c(F)c(F)c3)c(C3CC3)cc2F)cc1
[1]
  CC50 at 72 h: 4.5 µM
Hepatitis B virus [2]
  EC50: 0.42 µM
[3]
  selectivity ratio: 10.7

## O=C(Nc1cc(C(=O)Nc2cc(F)c(F)c(F)c2)c(C2CC2)cc1F)c1cccs1
[1]
  CC50 at 72 h: 20.9 µM
Hepatitis B virus [2]
  EC50: 0.5 µM
[3]
  selectivity ratio: 41.8

## CC(NC(=S)Nc1cc(C(=O)Nc2cc(F)c(F)c(F)c2)c(C2CC2)cc1F)C(F)(F)F (stereo unspecified)
[1]
  CC50 at 72 h: 3.86 µM
Hepatitis B virus [2]
  EC50: 0.029 µM
[3]
  selectivity ratio: 133

## O=C(Nc1cc(F)c(F)c(F)c1)c1cc(S(=O)(=O)NC2CCCC2)c(F)cc1C1CC1
[1]
  CC50 at 72 h: 34 µM
Hepatitis B virus [2]
  EC50: 0.65 µM
[3]
  selectivity ratio: 52.3

## O=C(Nc1cc(F)c(F)c(F)c1)c1cc(S(=O)(=O)NC2CCCC2)c(F)cc1-c1ccsc1
[1]
  CC50 at 72 h: 1.16 µM
Hepatitis B virus [2]
  EC50: > 4 µM
[3]
  selectivity ratio: < 0.29

## CC(C)NC(=S)Nc1cc(C(=O)Nc2cc(F)c(F)c(F)c2)c(C2CC2)cc1F
[1]
  CC50 at 72 h: 16.8 µM
Hepatitis B virus [2]
  EC50: 0.033 µM
[3]
  selectivity ratio: 510

## CCOC(=O)C1=C(CN2CCOCC2)NC(c2nccs2)=N[C@H]1c1ccc(F)cc1Br
Hepatitis B virus [2]
  EC50: 0.022 µM

## O=C(Nc1cc(F)c(F)c(F)c1)c1cc(S(=O)(=O)NC2CCC(O)CC2)c(F)cc1-c1ccc2c(c1)OCO2 (stereo unspecified)
[1]
  CC50 at 72 h: 82.4 µM
Hepatitis B virus [2]
  EC50: > 4 µM
[3]
  selectivity ratio: < 20.6

## CC(C)N(C)C(=S)Nc1cc(C(=O)Nc2cc(F)c(F)c(F)c2)c(C2CC2)cc1F
[11]
  AUC(0-inf): 3450 ng·h/mL
Hepatitis B virus [12]
  Activity: Active
Hepatitis B virus [13]
  Activity: Active
[14]
  MRT inf: 1.24 h
[1]
  CC50 at 72 h: > 100 µM
[7]
  remaining at 0.5 h: 91.6%
[4]
  half-life: 0.205 h
[15]
  AUC(0-t) at 24 h: 1180 ng·h/mL
[16]
  Cmax: 748 ng/mL
[17]
  Vd: 2.1 L/kg
[18]
  Tmax: 0.67 h
[19]
  CC50 at 72 h: 119 µM
[20]
  half-life: 1.62 h
Hepatitis B virus [21]
  EC50: 0.012 µM
[22]
  clearance: 28.2 mL/min/kg
[23]
  selectivity ratio at 144 h: 9920
[24]
  logP: > 5
[25]
  MRT inf: 4.42 h
[26]
  remaining at 2 h: 82.3%
Hepatitis B virus [2]
  EC50: 0.033 µM
[8]
  remaining at 1 h: 87.6%
[5]
  microsomal CLint: 113 µL/min/mg
[27]
  AUC(0-inf): 1200 ng·h/mL
[28]
  AUC(0-t) at 24 h: 3440 ng·h/mL
[29]
  remaining at 1 h: 99%
[9]
  half-life: > 4.82 h
[30]
  half-life: 2.87 h
[31]
  bioavailability: 28.9%
[10]
  remaining at 10 min: 97.5%
[3]
  selectivity ratio: > 3030
[32]
  remaining at 0 min: 100%
[33]
  MRT last at 24 h: 1.09 h
[34]
  MRT last at 24 h: 4.35 h
[6]
  CLint scaled: 102 mL/min/kg
[35]
  remaining at 1 h: 3.2%

## O=C(Nc1cc(F)c(F)c(F)c1)c1cc(S(=O)(=O)NC2CCCC2)c(F)cc1-c1cccs1
[1]
  CC50 at 72 h: 15 µM
Hepatitis B virus [2]
  EC50: 4 µM
[3]
  selectivity ratio: 3.75

## O=C(Nc1cc(F)c(F)c(F)c1)c1cc(NC(=O)C2CC2)c(F)cc1C1CC1
[1]
  CC50 at 72 h: 88.2 µM
Hepatitis B virus [2]
  EC50: 1.48 µM
[3]
  selectivity ratio: 59.6

## C=CCNC(=S)Nc1cc(C(=O)Nc2cc(F)c(F)c(F)c2)c(C2CC2)cc1F
[1]
  CC50 at 72 h: 16.7 µM
Hepatitis B virus [2]
  EC50: 0.11 µM
[3]
  selectivity ratio: 151

## O=C(Nc1cc(F)c(F)c(F)c1)c1cc(NC(=S)NC2CCCC2)c(F)cc1C1CC1
[1]
  CC50 at 72 h: 4.66 µM
Hepatitis B virus [2]
  EC50: 0.026 µM
[3]
  selectivity ratio: 179
